Measurements taken from PubChem BioAssay (NCI).
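Dose response: 5 concentrations. Exposure: 48 h. Format: 96-well plates. Endpoint: linear interpolation; highest concentration if not reached. TGI denotes the concentration required for complete inhibition of growth.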

Assays:
Experiment in all cases: inhibition of tumour cell growth, NCI panel, 48 h
OVCAR-3 ovarian = tested on: OVCAR-3 ovarian
NCI-H522 lung = tested on: NCI-H522 lung
HCT-116 colon = tested on: HCT-116 colon
UACC-62 melanoma = tested on: UACC-62 melanoma
BT-549 breast = tested on: BT-549 breast
SK-MEL-5 melanoma = tested on: SK-MEL-5 melanoma
TK-10 renal = tested on: TK-10 renal
UO-31 renal = tested on: UO-31 renal
OVCAR-5 ovarian = tested on: OVCAR-5 ovarian
MCF7 breast = tested on: MCF7 breast
HS 578T breast = tested on: HS 578T breast
A498 renal = tested on: A498 renal
UACC-257 melanoma = tested on: UACC-257 melanoma
RXF 393 renal = tested on: RXF 393 renal
786-0 renal = tested on: 786-0 renal
MOLT-4 leukemia = tested on: MOLT-4 leukemia
LOX IMVI melanoma = tested on: LOX IMVI melanoma
SNB-19 CNS = tested on: SNB-19 CNS
SK-OV-3 ovarian = tested on: SK-OV-3 ovarian
HT29 colon = tested on: HT29 colon
IGROV1 ovarian = tested on: IGROV1 ovarian
NCI/ADR-RES ovarian = tested on: NCI/ADR-RES ovarian
HCT-15 colon = tested on: HCT-15 colon
MDA-MB-435 = tested on: MDA-MB-435
M14 melanoma = tested on: M14 melanoma
NCI-H460 lung = tested on: NCI-H460 lung
CCRF-CEM leukemia = tested on: CCRF-CEM leukemia
T-47D breast = tested on: T-47D breast
EKVX NSCLC = tested on: EKVX NSCLC
ACHN renal = tested on: ACHN renal
PC-3 prostate = tested on: PC-3 prostate
CAKI-1 renal = tested on: CAKI-1 renal
SW-620 colon = tested on: SW-620 colon
HL-60(TB) leukemia = tested on: HL-60(TB) leukemia
SN12C renal = tested on: SN12C renal
SK-MEL-28 melanoma = tested on: SK-MEL-28 melanoma
SK-MEL-2 melanoma = tested on: SK-MEL-2 melanoma
OVCAR-8 ovarian = tested on: OVCAR-8 ovarian
NCI-H226 lung = tested on: NCI-H226 lung
MDA-MB-231 breast = tested on: MDA-MB-231 breast
K-562 leukemia = tested on: K-562 leukemia
NCI-H23 lung = tested on: NCI-H23 lung
SF-539 CNS = tested on: SF-539 CNS
HCC-2998 colon = tested on: HCC-2998 colon
COLO 205 colon = tested on: COLO 205 colon
OVCAR-4 ovarian = tested on: OVCAR-4 ovarian
RPMI-8226 leukemia = tested on: RPMI-8226 leukemia
SF-268 CNS = tested on: SF-268 CNS
U251 CNS = tested on: U251 CNS
SNB-75 CNS = tested on: SNB-75 CNS
SF-295 CNS = tested on: SF-295 CNS
MALME-3M melanoma = tested on: MALME-3M melanoma
A549 NSCLC = tested on: A549 NSCLC
HOP-62 NSCLC = tested on: HOP-62 NSCLC
MDA-N = tested on: MDA-N
DU-145 prostate = tested on: DU-145 prostate
KM12 colon = tested on: KM12 colon
HOP-92 NSCLC = tested on: HOP-92 NSCLC

COc1cc(C(c2c(O)c3ccccc3oc2=O)c2c(O)c3ccccc3oc2=O)ccc1O
TGI (OVCAR-3 ovarian): 34.6 µM | TGI (NCI-H522 lung): 43.2 µM | TGI (HCT-116 colon): > 100 µM | TGI (UACC-62 melanoma): 35.4 µM | TGI (BT-549 breast): 38.9 µM | TGI (SK-MEL-5 melanoma): 30.3 µM | TGI (TK-10 renal): 46.1 µM | TGI (UO-31 renal): 65.6 µM | TGI (OVCAR-5 ovarian): 41.3 µM | TGI (MCF7 breast): 38.2 µM | TGI (HS 578T breast): > 100 µM | TGI (A498 renal): > 100 µM | TGI (UACC-257 melanoma): 37.1 µM | TGI (RXF 393 renal): 33.7 µM | TGI (786-0 renal): 56 µM | TGI (MOLT-4 leukemia): 62.4 µM | TGI (LOX IMVI melanoma): 65.1 µM | TGI (SNB-19 CNS): 92 µM | TGI (SK-OV-3 ovarian): > 100 µM | TGI (HT29 colon): 40.8 µM | TGI (IGROV1 ovarian): 27.2 µM | TGI (NCI/ADR-RES ovarian): > 100 µM | TGI (HCT-15 colon): 36 µM | TGI (MDA-MB-435): > 100 µM | TGI (M14 melanoma): 34.7 µM | TGI (NCI-H460 lung): 44.6 µM | TGI (CCRF-CEM leukemia): 89.6 µM | TGI (T-47D breast): 33.9 µM | TGI (EKVX NSCLC): 80.9 µM | TGI (ACHN renal): 40.2 µM | TGI (PC-3 prostate): 94.6 µM | TGI (CAKI-1 renal): 36.5 µM | TGI (SW-620 colon): 63.1 µM | TGI (HL-60(TB) leukemia): 57.9 µM | TGI (SN12C renal): 42 µM | TGI (SK-MEL-28 melanoma): 36.5 µM | TGI (SK-MEL-2 melanoma): 58.5 µM | TGI (OVCAR-8 ovarian): > 100 µM | TGI (NCI-H226 lung): > 100 µM | TGI (MDA-MB-231 breast): 35.9 µM | TGI (K-562 leukemia): > 100 µM | TGI (NCI-H23 lung): > 100 µM | TGI (SF-539 CNS): 53.9 µM | TGI (HCC-2998 colon): 33.9 µM | TGI (COLO 205 colon): 31.7 µM | TGI (OVCAR-4 ovarian): > 100 µM | TGI (RPMI-8226 leukemia): > 100 µM | TGI (SF-268 CNS): 45.4 µM | TGI (U251 CNS): 58.4 µM | TGI (SNB-75 CNS): 66.1 µM | TGI (SF-295 CNS): > 100 µM | TGI (MALME-3M melanoma): 38 µM | TGI (A549 NSCLC): > 100 µM | TGI (HOP-62 NSCLC): > 100 µM | TGI (MDA-N): 44.8 µM | TGI (DU-145 prostate): 52.6 µM | TGI (KM12 colon): 87.1 µM | TGI (HOP-92 NSCLC): 33.8 µM

CC(C)(C)OC(=O)NCCC1SC2C=CC1C2 (stereo unspecified)
TGI (OVCAR-3 ovarian): > 100 µM | TGI (NCI-H522 lung): > 100 µM | TGI (HCT-116 colon): > 100 µM | TGI (UACC-62 melanoma): > 100 µM | TGI (BT-549 breast): > 100 µM | TGI (SK-MEL-5 melanoma): > 100 µM | TGI (TK-10 renal): > 100 µM | TGI (UO-31 renal): > 100 µM | TGI (OVCAR-5 ovarian): > 100 µM | TGI (MCF7 breast): > 100 µM | TGI (HS 578T breast): > 100 µM | TGI (A498 renal): > 100 µM | TGI (UACC-257 melanoma): > 100 µM | TGI (RXF 393 renal): > 100 µM | TGI (786-0 renal): > 100 µM | TGI (MOLT-4 leukemia): > 100 µM | TGI (LOX IMVI melanoma): > 100 µM | TGI (SNB-19 CNS): > 100 µM | TGI (SK-OV-3 ovarian): > 100 µM | TGI (HT29 colon): > 100 µM | TGI (IGROV1 ovarian): > 100 µM | TGI (NCI/ADR-RES ovarian): > 100 µM | TGI (HCT-15 colon): > 100 µM | TGI (MDA-MB-435): > 100 µM | TGI (M14 melanoma): > 100 µM | TGI (NCI-H460 lung): > 100 µM | TGI (CCRF-CEM leukemia): > 100 µM | TGI (T-47D breast): > 100 µM | TGI (EKVX NSCLC): > 100 µM | TGI (ACHN renal): > 100 µM | TGI (PC-3 prostate): > 100 µM | TGI (CAKI-1 renal): > 100 µM | TGI (SW-620 colon): > 100 µM | TGI (HL-60(TB) leukemia): > 100 µM | TGI (SN12C renal): > 100 µM | TGI (SK-MEL-28 melanoma): > 100 µM | TGI (SK-MEL-2 melanoma): > 100 µM | TGI (OVCAR-8 ovarian): > 100 µM | TGI (NCI-H226 lung): > 100 µM | TGI (MDA-MB-231 breast): > 100 µM | TGI (K-562 leukemia): > 100 µM | TGI (NCI-H23 lung): > 100 µM | TGI (SF-539 CNS): > 100 µM | TGI (HCC-2998 colon): > 100 µM | TGI (COLO 205 colon): > 100 µM | TGI (OVCAR-4 ovarian): > 100 µM | TGI (RPMI-8226 leukemia): > 100 µM | TGI (SF-268 CNS): > 100 µM | TGI (U251 CNS): > 100 µM | TGI (SNB-75 CNS): > 100 µM | TGI (SF-295 CNS): > 100 µM | TGI (MALME-3M melanoma): > 100 µM | TGI (A549 NSCLC): > 100 µM | TGI (HOP-62 NSCLC): > 100 µM | TGI (MDA-N): > 100 µM | TGI (DU-145 prostate): > 100 µM | TGI (KM12 colon): > 100 µM | TGI (HOP-92 NSCLC): > 100 µM
